PubChem BioAssay (NCI)
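Briefly, cells in 96-well plates were exposed to five compound concentrations for 48 h, and endpoints were estimated by linear interpolation. GI50 = concentration required for 50% inhibition of growth. TGI marks complete inhibition of growth.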

Tests used:
Assay in all cases: growth of human tumour cells (NCI), 48 h
XF 498 CNS = tested on: XF 498 CNS
SNB-78 CNS = tested on: SNB-78 CNS
EKVX NSCLC = tested on: EKVX NSCLC
LOX IMVI melanoma = tested on: LOX IMVI melanoma
HCC-2998 colon = tested on: HCC-2998 colon
DMS 114 small cell lung = tested on: DMS 114 small cell lung
SK-OV-3 ovarian = tested on: SK-OV-3 ovarian
IGROV1 ovarian = tested on: IGROV1 ovarian
ACHN renal = tested on: ACHN renal
OVCAR-4 ovarian = tested on: OVCAR-4 ovarian
SW-620 colon = tested on: SW-620 colon
UO-31 renal = tested on: UO-31 renal
SNB-19 CNS = tested on: SNB-19 CNS
UACC-62 melanoma = tested on: UACC-62 melanoma
NCI-H460 lung = tested on: NCI-H460 lung
DLD-1 colon = tested on: DLD-1 colon
SK-MEL-5 melanoma = tested on: SK-MEL-5 melanoma
OVCAR-3 ovarian = tested on: OVCAR-3 ovarian
DMS 273 small cell lung = tested on: DMS 273 small cell lung
TK-10 renal = tested on: TK-10 renal
K-562 leukemia = tested on: K-562 leukemia
SF-268 CNS = tested on: SF-268 CNS
SN12C renal = tested on: SN12C renal
UACC-257 melanoma = tested on: UACC-257 melanoma
LXFL 529 NSCLC = tested on: LXFL 529 NSCLC
A549 NSCLC = tested on: A549 NSCLC
COLO 205 colon = tested on: COLO 205 colon
SNB-75 CNS = tested on: SNB-75 CNS
786-0 renal = tested on: 786-0 renal
SR leukemia = tested on: SR leukemia
M14 melanoma = tested on: M14 melanoma
HCT-116 colon = tested on: HCT-116 colon
CAKI-1 renal = tested on: CAKI-1 renal
NCI-H23 lung = tested on: NCI-H23 lung
U251 CNS = tested on: U251 CNS
OVCAR-5 ovarian = tested on: OVCAR-5 ovarian
NCI-H522 lung = tested on: NCI-H522 lung
SF-295 CNS = tested on: SF-295 CNS
MALME-3M melanoma = tested on: MALME-3M melanoma
HCT-15 colon = tested on: HCT-15 colon
KM12 colon = tested on: KM12 colon
HOP-92 NSCLC = tested on: HOP-92 NSCLC
CCRF-CEM leukemia = tested on: CCRF-CEM leukemia
SK-MEL-2 melanoma = tested on: SK-MEL-2 melanoma
M19-MEL melanoma = tested on: M19-MEL melanoma
A498 renal = tested on: A498 renal
NCI-H226 lung = tested on: NCI-H226 lung
SK-MEL-28 melanoma = tested on: SK-MEL-28 melanoma
OVCAR-8 ovarian = tested on: OVCAR-8 ovarian
SF-539 CNS = tested on: SF-539 CNS
KM20L2 colon = tested on: KM20L2 colon
MOLT-4 leukemia = tested on: MOLT-4 leukemia
HT29 colon = tested on: HT29 colon
HOP-62 NSCLC = tested on: HOP-62 NSCLC
HOP-18 NSCLC = tested on: HOP-18 NSCLC
RXF 393 renal = tested on: RXF 393 renal
HL-60(TB) leukemia = tested on: HL-60(TB) leukemia
RPMI-8226 leukemia = tested on: RPMI-8226 leukemia

## O=C(O)C1Cc2[nH]c3ccccc3c2C2CCCC12 (centres undefined)
XF 498 CNS
  TGI: > 100 µM
SNB-78 CNS
  TGI: > 100 µM
EKVX NSCLC
  TGI: > 100 µM
LOX IMVI melanoma
  TGI: > 100 µM
HCC-2998 colon
  TGI: > 100 µM
DMS 114 small cell lung
  TGI: > 100 µM
SK-OV-3 ovarian
  TGI: > 100 µM
IGROV1 ovarian
  TGI: > 100 µM
ACHN renal
  TGI: > 100 µM
OVCAR-4 ovarian
  TGI: > 100 µM
SW-620 colon
  TGI: > 100 µM
UO-31 renal
  TGI: > 100 µM
SNB-19 CNS
  TGI: > 100 µM
UACC-62 melanoma
  TGI: > 100 µM
NCI-H460 lung
  TGI: > 100 µM
DLD-1 colon
  TGI: > 100 µM
SK-MEL-5 melanoma
  TGI: > 100 µM
OVCAR-3 ovarian
  TGI: > 100 µM
DMS 273 small cell lung
  TGI: > 100 µM
TK-10 renal
  TGI: > 100 µM
K-562 leukemia
  TGI: > 100 µM
SF-268 CNS
  TGI: > 100 µM
SN12C renal
  TGI: > 100 µM
UACC-257 melanoma
  TGI: > 100 µM
LXFL 529 NSCLC
  TGI: > 100 µM
A549 NSCLC
  TGI: > 100 µM
COLO 205 colon
  TGI: > 100 µM
SNB-75 CNS
  TGI: > 100 µM
786-0 renal
  TGI: > 100 µM
SR leukemia
  TGI: > 100 µM
M14 melanoma
  TGI: > 100 µM
HCT-116 colon
  TGI: > 100 µM
CAKI-1 renal
  TGI: > 100 µM
NCI-H23 lung
  TGI: > 100 µM
U251 CNS
  TGI: > 100 µM
OVCAR-5 ovarian
  TGI: > 100 µM
NCI-H522 lung
  TGI: > 100 µM
SF-295 CNS
  TGI: > 100 µM
MALME-3M melanoma
  TGI: > 100 µM
HCT-15 colon
  TGI: > 100 µM
KM12 colon
  TGI: > 100 µM
HOP-92 NSCLC
  TGI: > 100 µM
CCRF-CEM leukemia
  TGI: > 100 µM
SK-MEL-2 melanoma
  TGI: > 100 µM
M19-MEL melanoma
  TGI: > 100 µM
A498 renal
  TGI: > 100 µM
NCI-H226 lung
  TGI: > 100 µM
SK-MEL-28 melanoma
  TGI: > 100 µM
OVCAR-8 ovarian
  TGI: > 100 µM
SF-539 CNS
  TGI: > 100 µM
KM20L2 colon
  TGI: > 100 µM
MOLT-4 leukemia
  TGI: > 100 µM

## CC(Oc1ccc2c(=O)cc(-c3ccccc3)oc2c1)C(=O)O (centres undefined)
XF 498 CNS
  TGI: > 100 µM
SNB-78 CNS
  TGI: > 100 µM
EKVX NSCLC
  TGI: > 100 µM
LOX IMVI melanoma
  TGI: > 100 µM
HT29 colon
  TGI: > 100 µM
HCC-2998 colon
  TGI: > 100 µM
DMS 114 small cell lung
  TGI: > 100 µM
SK-OV-3 ovarian
  TGI: > 100 µM
IGROV1 ovarian
  TGI: > 100 µM
ACHN renal
  TGI: > 100 µM
OVCAR-4 ovarian
  TGI: > 100 µM
SW-620 colon
  TGI: > 100 µM
UO-31 renal
  TGI: > 100 µM
SNB-19 CNS
  TGI: > 100 µM
HOP-62 NSCLC
  TGI: > 100 µM
UACC-62 melanoma
  TGI: > 100 µM
NCI-H460 lung
  TGI: > 100 µM
DLD-1 colon
  TGI: > 100 µM
SK-MEL-5 melanoma
  TGI: > 100 µM
OVCAR-3 ovarian
  TGI: > 100 µM
TK-10 renal
  TGI: > 100 µM
K-562 leukemia
  TGI: > 100 µM
SF-268 CNS
  TGI: > 100 µM
SN12C renal
  TGI: > 100 µM
UACC-257 melanoma
  TGI: > 100 µM
LXFL 529 NSCLC
  TGI: > 100 µM
A549 NSCLC
  TGI: > 100 µM
COLO 205 colon
  TGI: > 100 µM
SNB-75 CNS
  TGI: > 100 µM
786-0 renal
  TGI: > 100 µM
SR leukemia
  TGI: > 100 µM
M14 melanoma
  TGI: > 100 µM
HCT-116 colon
  TGI: > 100 µM
CAKI-1 renal
  TGI: > 100 µM
NCI-H23 lung
  TGI: > 100 µM
HOP-18 NSCLC
  TGI: > 100 µM
U251 CNS
  TGI: > 100 µM
RXF 393 renal
  TGI: > 100 µM
HL-60(TB) leukemia
  TGI: > 100 µM
NCI-H522 lung
  TGI: > 100 µM
SF-295 CNS
  TGI: > 100 µM
MALME-3M melanoma
  TGI: > 100 µM
KM12 colon
  TGI: > 100 µM
HOP-92 NSCLC
  TGI: > 100 µM
CCRF-CEM leukemia
  TGI: > 100 µM
M19-MEL melanoma
  TGI: > 100 µM
A498 renal
  TGI: > 100 µM
NCI-H226 lung
  TGI: > 100 µM
SK-MEL-28 melanoma
  TGI: > 100 µM
OVCAR-8 ovarian
  TGI: > 100 µM
SF-539 CNS
  TGI: > 100 µM
KM20L2 colon
  TGI: > 100 µM
MOLT-4 leukemia
  TGI: > 100 µM

## O=c1oc2c(O)c(O)cc3c(=O)oc4c(O)c(O)cc1c4c23
XF 498 CNS
  TGI: > 100 µM
SNB-78 CNS
  GI50: > 100 µM
  TGI: > 100 µM
EKVX NSCLC
  TGI: > 100 µM
LOX IMVI melanoma
  TGI: > 100 µM
HT29 colon
  GI50: > 100 µM
  TGI: > 100 µM
HCC-2998 colon
  GI50: > 100 µM
  TGI: > 100 µM
DMS 114 small cell lung
  TGI: > 100 µM
SK-OV-3 ovarian
  TGI: > 100 µM
IGROV1 ovarian
  TGI: > 100 µM
ACHN renal
  TGI: > 100 µM
OVCAR-4 ovarian
  TGI: > 100 µM
SW-620 colon
  GI50: > 100 µM
  TGI: > 100 µM
UO-31 renal
  TGI: > 100 µM
SNB-19 CNS
  TGI: 57.3 µM
UACC-62 melanoma
  TGI: > 100 µM
NCI-H460 lung
  TGI: > 100 µM
DLD-1 colon
  GI50: > 100 µM
  TGI: > 100 µM
SK-MEL-5 melanoma
  GI50: > 100 µM
  TGI: > 100 µM
OVCAR-3 ovarian
  TGI: 82.2 µM
DMS 273 small cell lung
  GI50: > 100 µM
  TGI: > 100 µM
TK-10 renal
  TGI: > 100 µM
K-562 leukemia
  GI50: > 100 µM
  TGI: > 100 µM
SF-268 CNS
  TGI: > 100 µM
SN12C renal
  TGI: > 100 µM
UACC-257 melanoma
  GI50: > 100 µM
  TGI: > 100 µM
LXFL 529 NSCLC
  TGI: > 100 µM
A549 NSCLC
  TGI: > 100 µM
COLO 205 colon
  GI50: > 100 µM
  TGI: > 100 µM
SNB-75 CNS
  TGI: 90.3 µM
786-0 renal
  TGI: 71.6 µM
SR leukemia
  TGI: > 100 µM
M14 melanoma
  TGI: > 100 µM
HCT-116 colon
  TGI: > 100 µM
CAKI-1 renal
  TGI: 29.5 µM
NCI-H23 lung
  TGI: > 100 µM
U251 CNS
  TGI: 79 µM
RXF 393 renal
  GI50: > 100 µM
  TGI: > 100 µM
OVCAR-5 ovarian
  GI50: > 100 µM
  TGI: > 100 µM
HL-60(TB) leukemia
  GI50: > 100 µM
  TGI: > 100 µM
NCI-H522 lung
  TGI: 43.1 µM
SF-295 CNS
  GI50: > 100 µM
  TGI: > 100 µM
HCT-15 colon
  TGI: > 100 µM
KM12 colon
  GI50: > 100 µM
  TGI: > 100 µM
HOP-92 NSCLC
  TGI: 99 µM
CCRF-CEM leukemia
  GI50: > 100 µM
  TGI: > 100 µM
SK-MEL-2 melanoma
  TGI: > 100 µM
M19-MEL melanoma
  GI50: > 100 µM
  TGI: > 100 µM
A498 renal
  TGI: > 100 µM
NCI-H226 lung
  TGI: 57.4 µM
SK-MEL-28 melanoma
  GI50: > 100 µM
  TGI: > 100 µM
RPMI-8226 leukemia
  GI50: > 100 µM
  TGI: > 100 µM
OVCAR-8 ovarian
  TGI: 88.7 µM
KM20L2 colon
  TGI: > 100 µM
MOLT-4 leukemia
  GI50: > 100 µM
  TGI: > 100 µM
